These results are taken from patent US10919949B2, “Acylated insulin analogues and uses thereof” (Novo Nordisk A/S, priority 2017, dated 2021).

Assay [1] relates to isolated rat adipocytes. Put plainly: Lipogenesis in rat free fat cell assay. It counts as cell-based.
Description: The metabolic potency of the insulin derivatives of the invention was determined by lipogenesis using isolated rat adipocytes.
In brief, epididymal fat pads were removed from killed Sprague-Dawley rats and placed in degradation buffer with collagenase (Worthington) in order to degrade the fat pads into a single-cell suspension. […] The incubation was stopped by addition of MicroScint-E (PerkinElmer), and the plates counted in a TopCount NXT (PerkinElmer).
Assay [2] concerns AKT and ERK. Put plainly: Insulin receptor signalling via AKT and ERK phosphorylation in CHO-hIR cells (Western blot / Surefire). It counts as cell-based, Chinese hamster. The note with it: 10 min stimulation, Table 1A.
Description: Insulin receptor (IR) signalling of the analogues of this invention via AKT and ERK pathways was assessed either by traditional Western blotting technique or by the use of Surefire, alphascreen technique.
In brief, CHO-hIR cells were stimulated for 10 min with increasing concentrations of the insulin analogue, washed in ice-cold PBS, snap-frozen and lysed in lysis buffer (Biosource). Equal amounts of proteins were loaded on gels and blotted to nitrocellulose membranes. Phosphorylated AKT and ERK were visualised with Phospho-AKT (Ser473) (Cell signalling #9271) and pMAPK 44/42 ERK1/2 rabbit (Cell Signalling #4376) antibodies, respectively. Band intensities were evaluated using a LAS3000 (Fuji).
The responsiveness value (Span) for each analogue was calculated using non-linear regression in GraphPad Prism 7 from GraphPad Software Inc and expresses as percent of the responsiveness of insulin (% max AKT or % max ERK)
[3] abbreviates: 0.1% HSA as printed, Table 1A second lipogenesis column.
The mark [4] stands for this setting: 0.1% HSA, Table 1A first lipogenesis column.

As for “N{Epsilon-B28}-[(4S)-4-carboxy-4-[[(4R)-4-[(3R,10S,13R,17R)-3-hydroxy-10,13-dimethyl-2,3,4,5,6,7,8,9,11,12,14,15,16,17-tetradecahydro-1H-cyclopenta[a]phenanthren-17-yl]pentanoyl]amino]butanoyl]-[TyrB5,LysB28],des-(B29-B30)-Insulin [Example 8]”, the figures for the “Lipogenesis 0.1% HSA EC50 (% of human insulin)” value in assay [1] (setting [3]) and in assay [1] (setting [4]) were 0.72 % of human insulin and 1.76 % of human insulin, respectively. Also, the “% maxERK/% maxAKT” value in assay [2] is listed as 0.32.
Take “N{Epsilon-B28}-[(4R)-4-[(3R,10S,13R,17R)-3-hydroxy-10,13-dimethyl-2,3,4,5,6,7,8,9,11,12,14,15,16,17-tetradecahydro-1H-cyclopenta[a]phenanthren-17-yl]pentanoyl]-[TyrB5,LysB28],des-(B29-B30)-Insulin [Example 9]”: the “Lipogenesis 0.1% HSA EC50 (% of human insulin)” value in assay [1] (setting [3]) is on record as 0.49 % of human insulin; in assay [1] (setting [4]), 0.40 % of human insulin. Besides, the “% maxERK/% maxAKT” value in assay [2] was determined as 0.29.
